Laboratory results from patent US20230312646A1, “ANTIBACTERIAL PEPTIDES” (priority 2020, published 2023).
Numbered stars: 1 amine (or outer) side, 2 acyl side, 3 side chain; on linkers, the order of the positions; unused ones are H or OH. Square brackets hold non-standard residues; d marks the D form. Peptide text beside a SMILES is read from it. * marks the point of attachment. NEtAsp = CCN([C@@H](CC(=O)[*:3])C(=O)[*:2])[*:1]; Acryloyl(3-(3-pyridyl),E) = O=C(/C=C/c1cccnc1)*; Cinnamoyl(4-F) = O=C(/C=C/c1ccc(F)cc1)*; Caffeoyl = O=C(/C=C/c1ccc(O)c(O)c1)*; NMeCha = CN[C@@H](CC1CCCCC1)C(=O)O; Hydrocinnamoyl = O=C(CCc1ccccc1)*; NH(4-MeO-phenyl) = COc1ccc(N*)cc1; NMeR = CN[C@@H](CCCNC(=N)N)C(=O)O; X2 = O=C(CN(Cc1ccccn1)[*:1])[*:2]; X7 = C[N+](C)=C(NCC(=O)*)N1CCOCC1; NMeF = CN[C@@H](Cc1ccccc1)C(=O)O; X4 = O=C([O-])[C@H](Cc1ccccc1)N*; tBuAla = CC(C)(C)C[C@H](N)C(=O)O; NFurfurylGly = O=C(O)CNCc1ccco1; NMeQ = CN[C@@H](CCC(N)=O)C(=O)O; Cha = N[C@@H](CC1CCCCC1)C(=O)O; NMeD = CN[C@@H](CC(=O)O)C(=O)O; X1 = O=C(/C=C/c1ccc2ccccc2c1)*; X3 = CN(C)C(NCC(=O)*)=[N+](C)C; NMeL = CN[C@@H](CC(C)C)C(=O)O; Phe(ol) = N[C@H](CO)Cc1ccccc1; NHPhenethyl = c1ccc(CCN*)cc1; X8 = NC[C@H](Cc1ccccc1)N*; X6 = O=C(/C=C/c1ccccc1)*; CO = O=C([*:1])[*:2]

Biological target: T1, Escherichia coli SC (^EcSC) (Escherichia coli, UniProt P0A988)
T1 construct: His tag (inferred from the pET15b vector and Ni-NTA purification) (N); made in house; host or cells: E. coli
T1 sequence (P0A988 whole entry): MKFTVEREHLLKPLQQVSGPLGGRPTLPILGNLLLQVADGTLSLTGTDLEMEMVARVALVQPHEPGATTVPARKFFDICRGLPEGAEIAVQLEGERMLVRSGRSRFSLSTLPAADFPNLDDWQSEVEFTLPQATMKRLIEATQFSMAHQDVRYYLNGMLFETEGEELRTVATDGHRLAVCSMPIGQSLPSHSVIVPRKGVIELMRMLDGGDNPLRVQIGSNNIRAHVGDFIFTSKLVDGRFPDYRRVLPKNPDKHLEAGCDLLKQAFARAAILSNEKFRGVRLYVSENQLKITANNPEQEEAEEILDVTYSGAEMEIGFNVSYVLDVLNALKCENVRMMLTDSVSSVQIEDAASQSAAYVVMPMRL
Test: biochemical
Format: binding
Details: for ΔG (kcal/mol) / Kd: ITC at 298.15 K (25° C.); for Kd: Kd (nM); for kon: read-out: kon (M^-1.s^-1)
Procedure: The procedure has been described previously (Wolff, P.; Oliéric, V.; Briand, J. P.; Chaloin, O.; Dejaegere, A.; Dumas, P.; Ennifar, E.; Guichard, G.; Wagner, J.; Burnouf, D. Y., Structure-Based Design of Short Peptide Ligands Binding onto the E. coli Processivity Ring. J. Med. Chem. 2011, 54 (13), 4627-4637). Briefly, E.coli cells were transformed with plasmids pET15b containing the dnaN gene from E. coli and were grown in LB at 37° C. to OD 0.5, then induced by IPTG (0.1 mM) at 28° C. overnight. dnaN proteins fractions were first enriched on a Ni-NTA column, eluted with a histidine step (300 mM) and further purified on a Source Q column in buffer containing 20 mM Tris HCI pH 7.5, 0.5 mM EDTA and 10% (v/v) glycerol, using a gradient from 0 to 0.5 M NaCl. After a final ultracentrifugation (45 K, 1 h, 20° C.), soluble proteins were concentrated on a Centricon 30 K (Millipore) in the same buffer and stored at 4° C. in 2 M ammonium sulfate. Buffer exchange was performed on Centrikon 10 K at 4° C. before use and protein quality was assessed by DLS.
ITC experiments were performed using an iTC200 or a PEAQ-ITC instrument (Microcal Malvern Panalytical). Peptides (300 or 600 µM) were titrated at 25° C. by sequential injections (usually 2 µl each) into an SC solution (30 or 60 µM). Data were corrected for heat of injection by subtracting the signal of the titration of peptides into proteiN-free buffer solution (Hepes 10 mM pH 7.4, NaCl 0.15 M, EDTA 3 mM). Each titration was performed at least twice. Analyses of experimental data were performed following a classical treatment with the AFFINImeter software (https://www.affinimeter.com; S4S, Santiago de Compostela, Spain). In addition, kinetic information was obtained in some cases with kinITC as implemented in the software AFFINImeter.
All newly synthesized peptides were tested for their interaction with ^EcSC by ITC at 25° C. As a general rule, all thermodynamic profiles reveal an exothermic interaction, and a non-favorable entropic component. The resulting negative Gibb’s free energies characterize a spontaneous interaction. The analysis of raw data by the Affinimeter® software also gave access to kinetics rate constant of the interaction.

Row | SMILES | ΔG (kcal/mol) | Kd | kon | koff, fold higher than for peptide 1 (P1) (compared to P1) | kon value, fold higher than for peptide 1 (P1) (compared to P1)
1 | CC(=O)N[C@@H](CCC(N)=O)C(=O)N[C@@H](CC1CCCCC1)C(=O)N[C@H](C(=O)N[C@@H](CC(C)C)C(=O)N[C@@H](Cc1ccccc1)C(=O)O)[C@@H](C)O [Asp to Thr substitution] (Ac-Q[Cha]TLF-OH) | -9.2 (+/- 0.1) kcal/mol | 180 nM |  |  | 
2 | CC(=O)N(C)[C@@H](CCC(N)=O)C(=O)N[C@@H](CC1CCCCC1)C(=O)N[C@@H](CC(=O)O)C(=O)N[C@@H](CC(C)C)C(=O)N[C@@H](Cc1ccccc1)C(=O)O [P2] (Ac-[NMeQ][Cha]DLF-OH) | -7.7 (± 0.2) kcal/mol | > 1000 nM | 21000 M⁻¹ s⁻¹ |  | 
3 | CC(=O)N[C@@H](CCC(N)=O)C(=O)N(C)[C@@H](CC1CCCCC1)C(=O)N[C@@H](CC(=O)O)C(=O)N[C@@H](CC(C)C)C(=O)N[C@@H](Cc1ccccc1)C(=O)O [P3] (Ac-Q[NMeCha]DLF-OH) | -6.0 (± 0.1) kcal/mol | > 1000 nM |  |  | 
4 | CC(=O)N[C@@H](CCC(N)=O)C(=O)N[C@@H](CC1CCCCC1)C(=O)N(C)[C@@H](CC(=O)O)C(=O)N[C@@H](CC(C)C)C(=O)N[C@@H](Cc1ccccc1)C(=O)O [P4] (Ac-Q[Cha][NMeD]LF-OH) | -9.5 (± 0.1) kcal/mol | 114 nM | 210000 M⁻¹ s⁻¹ | 2.5 fold | 5 fold
5 | CCN(C(=O)[C@H](CC1CCCCC1)NC(=O)[C@H](CCC(N)=O)NC(C)=O)[C@@H](CC(=O)O)C(=O)N[C@@H](CC(C)C)C(=O)N[C@@H](Cc1ccccc1)C(=O)O [P5] (Ac-Q[Cha][NEtAsp]LF-OH) | -8.57 (± 0.07) kcal/mol | 523 nM | 28800 M⁻¹ s⁻¹ |  | 
6 | CC(=O)N[C@@H](CCC(N)=O)C(=O)N[C@@H](CC1CCCCC1)C(=O)N[C@@H](CC(=O)O)C(=O)N(C)[C@@H](CC(C)C)C(=O)N[C@@H](Cc1ccccc1)C(=O)O [P6] (Ac-Q[Cha]D[NMeL]F-OH) | -5.2 (± 0.2) kcal/mol | > 1000 nM |  |  | 
7 | CC(=O)N[C@@H](CCC(N)=O)C(=O)N[C@@H](CC1CCCCC1)C(=O)N[C@@H](CC(=O)O)C(=O)N[C@@H](CC(C)C)C(=O)N(C)[C@@H](Cc1ccccc1)C(=O)O [P7] (Ac-Q[Cha]DL[NMeF]-OH) | -7.1 (± 0.1) kcal/mol | > 1000 nM | 10000 M⁻¹ s⁻¹ |  | 
8 | CC(C)C[C@H](NC(=O)[C@H](CC(=O)O)NC(=O)[C@H](CC1CCCCC1)NC(=O)[C@H](CCC(N)=O)NC(=O)CNCc1ccccn1)C(=O)N[C@@H](Cc1ccccc1)C(=O)O [P8] (H-[X2]Q[Cha]DLF-OH) |  | 172 nM | 34000 M⁻¹ s⁻¹ |  | 
9 | CC(C)C[C@H](NC(=O)[C@H](CC(=O)O)NC(=O)[C@H](CC1CCCCC1)NC(=O)[C@H](CCC(N)=O)NC(=O)CNCc1ccco1)C(=O)N[C@@H](Cc1ccccc1)C(=O)O [P9] (H-[NFurfurylGly]Q[Cha]DLF-OH) | -9.2 (± 0.1) kcal/mol | 171 nM | 48000 M⁻¹ s⁻¹ |  | 
10 | CC(=O)N[C@@H](CCCNC(=N)N)C(=O)N[C@@H](CCC(N)=O)C(=O)N[C@@H](CC1CCCCC1)C(=O)N[C@@H](CC(=O)O)C(=O)N[C@@H](CC(C)C)C(=O)N[C@@H](Cc1ccccc1)C(=O)O [P12] (Ac-RQ[Cha]DLF-OH) | -8.60 (± 0.08) kcal/mol | 498 nM | 37000 M⁻¹ s⁻¹ | 2.5 fold | 
11 | CC(=O)N(C)[C@@H](CCCNC(=N)N)C(=O)N[C@@H](CCC(N)=O)C(=O)N[C@@H](CC1CCCCC1)C(=O)N[C@@H](CC(=O)O)C(=O)N[C@@H](CC(C)C)C(=O)N[C@@H](Cc1ccccc1)C(=O)O [P13] (Ac-[NMeR]Q[Cha]DLF-OH) | -7.7 (± 0.1) kcal/mol | 2130 nM | 21000 M⁻¹ s⁻¹ | 4 fold | 
12 | CC(C)C[C@H](NC(=O)[C@H](CC(=O)O)NC(=O)[C@H](CC1CCCCC1)NC(=O)[C@H](CCC(N)=O)NC(=O)CNC(N1CCOCC1)=[N+](C)C)C(=O)N[C@@H](Cc1ccccc1)C(=O)[O-] [P14] (X7-Q[Cha]DL-X4) | -9.0 (± 0.1) kcal/mol | 276 nM | 34000 M⁻¹ s⁻¹ |  | 
13 | CC(C)C[C@H](NC(=O)[C@H](CC(=O)O)NC(=O)[C@H](CC1CCCCC1)NC(=O)[C@H](CCC(N)=O)NC(=O)CNC(N(C)C)=[N+](C)C)C(=O)N[C@@H](Cc1ccccc1)C(=O)[O-] [P15] (X3-Q[Cha]DL-X4) | -8.7 (± 0.1) kcal/mol | 353 nM | 34000 M⁻¹ s⁻¹ |  | 
14 | CC(C)C[C@H](NC(=O)[C@H](CC(=O)O)NC(=O)[C@H](CC1CCCCC1)NC(=O)[C@H](CCC(N)=O)NC(=O)/C=C/c1cccnc1)C(=O)N[C@@H](Cc1ccccc1)C(=O)O [P16] ({Acryloyl(3-(3-pyridyl),E)}-Q[Cha]DLF-OH) | -9.3 (± 0.2) kcal/mol | 156 nM | 46000 M⁻¹ s⁻¹ |  | 
15 | CC(C)C[C@H](NC(=O)[C@H](CC(=O)O)NC(=O)[C@H](CC1CCCCC1)NC(=O)[C@H](CCC(N)=O)NC(=O)/C=C/c1ccccc1)C(=O)N[C@@H](Cc1ccccc1)C(=O)O [P17] (X6-Q[Cha]DLF-OH) | -9.4 (± 0.2) kcal/mol | 129 nM | 46000 M⁻¹ s⁻¹ |  | 
16 | CC(C)C[C@H](NC(=O)[C@H](CC(=O)O)NC(=O)[C@H](CC1CCCCC1)NC(=O)[C@H](CCC(N)=O)NC(=O)/C=C/c1ccc(F)cc1)C(=O)N[C@@H](Cc1ccccc1)C(=O)O [P18] ({Cinnamoyl(4-F)}-Q[Cha]DLF-OH) |  | 144 nM |  |  | 
17 | CC(C)C[C@H](NC(=O)[C@H](CC(=O)O)NC(=O)[C@H](CC1CCCCC1)NC(=O)[C@H](CCC(N)=O)NC(=O)CCc1ccccc1)C(=O)N[C@@H](Cc1ccccc1)C(=O)O [P19] (Hydrocinnamoyl-Q[Cha]DLF-OH) |  | 123 nM | 55000 M⁻¹ s⁻¹ |  | 
18 | CC(C)C[C@H](NC(=O)[C@H](CC(=O)O)NC(=O)[C@H](CC1CCCCC1)NC(=O)[C@H](CCC(N)=O)NC(=O)/C=C/c1ccc2ccccc2c1)C(=O)N[C@@H](Cc1ccccc1)C(=O)O [P20] (X1-Q[Cha]DLF-OH) |  | 89 nM | 65000 M⁻¹ s⁻¹ |  | 
19 | CC(C)C[C@H](NC(=O)[C@H](CC(=O)O)NC(=O)[C@H](CC1CCCCC1)NC(=O)[C@H](CCC(N)=O)NC(=O)/C=C/c1ccc(O)c(O)c1)C(=O)N[C@@H](Cc1ccccc1)C(=O)O [P21] (Caffeoyl-Q[Cha]DLF-OH) |  | 99 nM | 46000 M⁻¹ s⁻¹ |  | 
20 | COc1ccc(NC(=O)N[C@@H](CCC(N)=O)C(=O)N[C@@H](CC2CCCCC2)C(=O)N[C@@H](CC(=O)O)C(=O)N[C@@H](CC(C)C)C(=O)N[C@@H](Cc2ccccc2)C(=O)O)cc1 [P22] ({NH(4-MeO-phenyl)-CO}-Q[Cha]DLF-OH) |  | 73 nM | 40000 M⁻¹ s⁻¹ |  | 
21 | CC(=O)N[C@@H](CCC(N)=O)C(=O)N[C@@H](CC1CCCCC1)C(=O)N[C@@H](CC(=O)O)C(=O)N[C@@H](CC(C)C)C(=O)NCCc1ccccc1 [P23] (Ac-Q[Cha]DL-NHPhenethyl) | -8.2 (± 0.05) kcal/mol | 922 nM | 19000 M⁻¹ s⁻¹ |  | 
22 | CC(=O)N[C@@H](CCC(N)=O)C(=O)N[C@@H](CC1CCCCC1)C(=O)N[C@@H](CC(=O)O)C(=O)N[C@@H](CC(C)C)C(=O)N[C@H](CO)Cc1ccccc1 [P24] (Ac-Q[Cha]DL[Phe(ol)]) | -8.4 (± 0.1) kcal/mol | 751 nM | 26000 M⁻¹ s⁻¹ |  | 
23 | CC(=O)N[C@@H](CCC(N)=O)C(=O)N[C@@H](CC1CCCCC1)C(=O)N[C@@H](CC(=O)O)C(=O)N[C@@H](CC(C)C)C(=O)N[C@H](CN)Cc1ccccc1 [P25] (Ac-Q[Cha]DL-X8) | -8.27 (± 0.03) kcal/mol | 877 nM | 12000 M⁻¹ s⁻¹ |  | 
24 | CC(=O)N[C@@H](CCC(N)=O)C(=O)N[C@@H](CC1CCCCC1)C(=O)N[C@@H](CC(=O)O)C(=O)N[C@@H](CC(C)C)C(=O)N[C@@H](Cc1ccccc1)C(N)=O [P26] (Ac-Q[Cha]DLF-NH2) | -9.0 (± 0.1) kcal/mol | 268 nM | 33000 M⁻¹ s⁻¹ |  | 
25 | CC(=O)N[C@@H](CCC(N)=O)C(=O)N[C@@H](CC1CCCCC1)C(=O)N[C@@H](CC(=O)O)C(=O)N[C@@H](CC(C)C)C(=O)NCC(=O)N[C@@H](CC(C)C)C(=O)O [P27] (Ac-Q[Cha]DLGL-OH) | -8.4 (± 0.1) kcal/mol | 682 nM | 26000 M⁻¹ s⁻¹ |  | 
26 | CC(=O)N[C@@H](CCC(N)=O)C(=O)N[C@@H](CC1CCCCC1)C(=O)N[C@@H](CC(=O)O)C(=O)N[C@@H](CC(C)C)C(=O)NCC(=O)N[C@@H](CC(C)(C)C)C(=O)O [P28] (Ac-Q[Cha]DLG[tBuAla]-OH) | -7.60 (± 0.06) kcal/mol | 2690 nM | 11000 M⁻¹ s⁻¹ |  | 
